Data as given in paper PMC7698842, “Lanostane Triterpenoid Metabolites from a Penares sp. Marine Sponge Protect Neuro-2a Cells against Paraquat Neurotoxicity” (Molecules, 2020).

Assays:
Type in all cases: cell-based, mouse
[1] = system: PQ-treated Neuro-2a cells; assay: Propidium iodide straining of PQ-treated Neuro-2a cells (membrane permeability); conditions: compound 10 μM pre-incubation, PQ-treated cells, 24 h
Protocol: The cells (1 × 10^4 cells/well) were seeded in black 96-well plates before testing. After incubation of the cells with compounds and PQ during 24 h, PI solution (10 μg/mL) was added to each well and the plate was incubated in the dark at 37 °C for 10 min. Cells were washed with phosphate buffer saline (PBS) (BioloT, St.Peterburg, Russia) and fluorescence was measured with a Fluoroskan Ascent plate reader (Thermo Labsystems, Helsinki, Finland) at […]. All manipulations with fluorescent probes were carried out in a darkened room. The results were presented as percent of positive control data.

[2] = system: ROS level in PQ-treated Neuro-2a cells; assay: ROS level analysis in PQ-treated Neuro-2a cells (H2DCFDA); conditions: tested at 1 and 10 μM, PQ 500 µM 1 h
Protocol: The cells (1 × 10^4 cells/well of a 96-well plate) were incubated with compound solutions (1 and 10 µM) during 1 h. Then, PQ was added to cell suspension to a resulting concentration of 500 µM for incubation during 1 h. Cells incubated without PQ and compounds and with PQ alone were used as positive and negative controls, respectively. The 20 µL of 2,7-dichlorodihydrofluorescein diacetate solution (H2DCFDA, Molecular Probes, Eugene, OR, USA) was added to each well (10 µM, final concentration) and the plate was incubated for an additional 10 min at 37 °C. The intensity of dichlorofluorescin fluorescence was measured with a PHERAstar FS plate reader (BMG Labtech, Ortenberg, Germany) at λex = 485 nm and λem = 518 nm. The data were processed by MARS Data Analysis v. 3.01R2 (BMG Labtech, Ortenberg, Germany). The results were presented as percent of positive control data.

[3] = system: PQ-treated Neuro-2a cells; assay: PQ-treated Neuro-2a cell viability (FDA assay); conditions: compound 1 and 10 µM, PQ 500 µM, 24 h
Protocol: A stock solution of the fluorescein diacetate (FDA) (Sigma-Aldrich, St. Louis, MO, USA) in DMSO (1 mg/mL) was prepared. The cells (1 × 10^4 cells/well) were seeded in black 96-well plates before testing. After incubation of the cells with compounds and PQ during 24 h, FDA solution (50 μg/mL) was added to each well and the plate was incubated in the dark at 37 °C for 15 min. Cells were washed with phosphate buffer saline (PBS) (BioloT, S.-Peterburg, Russia) and fluorescence was measured with a Fluoroskan Ascent plate reader (Thermo Labsystems, Helsinki, Finland) at λex = 485 nm and λem = 518 nm. All manipulations with fluorescent probes were carried out in a darkened room. Cell viability was expressed as the percent of control.
The cells (1 × 10^4 cells/well of a 96-well plate) were treated with studied compounds at concentrations of 1 and 10 µM for 1 h and then 500 µM of PQ (Sigma-Aldrich, St. Louis, MO, USA) was added to the neuroblastoma cells. Cells incubated without PQ and compounds and with PQ alone were used as positive and negative controls, respectively. The viability of cells was measured after 24 h using MTT and FDA methods. The results were presented as percent of positive control data.

CC(C)=CCC[C@@H](C)[C@H]1CC[C@@]2(C(=O)O)C3=C(CC[C@]12C)[C@@]1(C)CCC(=O)C(C)(C)[C@@H]1CC3 [Compound 4, penasterone]
decrease of fluorescence of PI-straining cells [1]: 17% | concentrations at which ROS content in PQ-treated cells was reduced [2]: effective at concentrations of 1 and 10 μM | effect on PQ-treated cell viability (FDA assay) [3]: did not show any effect
